Source: article PMC9219824, “Antiplasmodial Cyclodecapeptides from Tyrothricin Share a Target with Chloroquine” (Antibiotics, 2022)
Like-named read-outs stand apart in the source and are kept apart here. Square brackets hold non-standard residues; d marks the D form. Peptide text beside a SMILES is read from it. Orn = NCCC[C@H](N)C(=O)O

Columns and labels:
CQR P. falciparum Dd2 = assay: microbe, parasite or virus in culture; assay type: cell-based, Plasmodium falciparum; conditions: for IC50: 48 h, Malstat, ± SEM, read-out: IC50, CQR P. falciparum Dd2; for Resistance Index IC50Dd2/IC503D7: first value of cell; for Resistance Index IC50Dd2/IC50D10: second value of cell
Experimental: (§1) The antimalarial assays were carried out according to the method of Nkhoma et al.. […] On the day of the assay, the parasitemia was determined following observation by light microscopy after Giemsa staining of a thin blood smear from the culture. The cultures at young trophozoite stage were diluted to 2% parasitemia and 2% hematocrit by addition of fresh RPMI medium and uninfected erythrocytes. This culture suspension was distributed in 96-well culture plates at 90 µL/well. […] Peptide solvent and medium (10 µL/well) was used as sterility control and in growth control and 10 μL 1.0 mM GS was used as positive control. Assays were carried out in at least three biological repeats each consisting of three technical repeats to ascertain reproducibility.
(§2) The culture suspension was frozen away at −20 °C until determination of the residual lactate dehydrogenase activity of the parasites by the Malstat assay, as adapted from Gomez et al..
(§3) For the Malstat assay, the plates were transferred to −80 °C for 1 h following overnight storage at −20 °C to ensure that all the suspensions in each well of the 96-well plate were frozen. The plates were then thawed at room temperature. The Malstat reagent consisted of 200 μL Triton X-100, 2 g L-lactic acid (substrate), 0.66 g Tris-HCl buffer and 0.011 g of 3-acetylpyridine adenine dinucleotide (APAD) (coenzyme for parasite lactate dehydrogenase) in 100 mL analytical quality water set to a pH of 9.0 [93]. […] A 15 µL aliquot of the thawed and properly mixed suspension from the assay plates was added to 100 µL of the Malstat reagent, followed by addition of 25 µL of the NBT/PES solution. The reaction mixtures were then incubated at room temperature in the dark for 30 min followed by spectrophotometric measurement of the absorbance of the reduced APAD at 620 nm using a Model 680 Microplate reader from BioRad.
(§4) The data obtained from spectrophotometric measurement of the plates following the lactate dehydrogenase (Malstat) assay were converted to percentage growth inhibition using the data analysis method described by Rautenbach et al.. The background was obtained from control wells in which the parasites were killed with 100 µM GS while total growth was from the wells that were not submitted to peptides. […] The percentage COS-1 cell death (CellTiter Blue™ assay) was similarly calculated from absorbance values.

CQS P. falciparum 3D7 = assay: microbe, parasite or virus in culture; assay type: cell-based, Plasmodium falciparum
Experimental: as §1, §2, §3, §4

CQI P. falciparum D10 = assay: microbe, parasite or virus in culture; assay type: cell-based, Plasmodium falciparum; conditions: for IC50: 48 h, Malstat, ± SEM; for Selectivity Index IC50D10/IC50 (COS cells): second value of cell
Experimental: The antimalarial assays were carried out according to the method of Nkhoma et al.. Once the cultures reached a parasitemia of 5–15%, they were synchronized four days prior to the day of the assay as described above which allowed the cultures to recover from the stress caused by the D-sorbitol. On the day of the assay, the parasitemia was determined following observation by light microscopy after Giemsa staining of a thin blood smear from the culture. The cultures at young trophozoite stage were diluted to 2% parasitemia and 2% hematocrit by addition of fresh RPMI medium and uninfected erythrocytes. This culture suspension was distributed in 96-well culture plates at 90 µL/well. The peptides and CQ diluted in culture medium lacking albumax II were added to the cultures in triplicate at 10 µL/well to give a total volume of 100 µL/well. Peptide solvent and medium (10 µL/well) was used as sterility control and in growth control and 10 μL 1.0 mM GS was used as positive control. Assays were carried out in at least three biological repeats each consisting of three technical repeats to ascertain reproducibility.
For the activity determination against parasites, plates were incubated at 37 °C for 48 h under an atmosphere of 3% CO2, 4% O2 and 93% N2. The culture suspension was frozen away at −20 °C until determination of the residual lactate dehydrogenase activity of the parasites by the Malstat assay, as adapted from Gomez et al..
For the Malstat assay, the plates were transferred to −80 °C for 1 h following overnight storage at −20 °C to ensure that all the suspensions in each well of the 96-well plate were frozen. The plates were then thawed at room temperature. The Malstat reagent consisted of 200 μL Triton X-100, 2 g L-lactic acid (substrate), 0.66 g Tris-HCl buffer and 0.011 g of 3-acetylpyridine adenine dinucleotide (APAD) (coenzyme for parasite lactate dehydrogenase) in 100 mL analytical quality water set to a pH of 9.0 [93]. The lactate dehydrogenase reaction was initiated by addition of a second solution, NBT/PES solution composed of 1.96 mM nitro blue tetrazolium (NBT) and 0.24 mM phenazine ethosulfate (PES) which was always protected from light. A 15 µL aliquot of the thawed and properly mixed suspension from the assay plates was added to 100 µL of the Malstat reagent, followed by addition of 25 µL of the NBT/PES solution. The reaction mixtures were then incubated at room temperature in the dark for 30 min followed by spectrophotometric measurement of the absorbance of the reduced APAD at 620 nm using a Model 680 Microplate reader from BioRad.
(§5) The data obtained from spectrophotometric measurement of the plates following the lactate dehydrogenase (Malstat) assay were converted to percentage growth inhibition using the data analysis method described by Rautenbach et al.. The background was obtained from control wells in which the parasites were killed with 100 µM GS while total growth was from the wells that were not submitted to peptides. The background for the hemolysis evaluation was from wells in which the uninfected erythrocytes were lysed using 100 µM GS while growth control was from the wells with uninfected erythrocytes that received no peptides. The percentage COS-1 cell death (CellTiter Blue™ assay) was similarly calculated from absorbance values. All the dose–response assay data were evaluated using GraphPad Prism 4.03 (GraphPad Software, San Diego, CA, USA) followed by non-linear regression and sigmoidal curves were fitted (having variable slope and a constant difference of 100 between the top and bottom plateau). Following calculation of the 50% P. falciparum inhibitory concentration (IC50), 50% hemolytic concentration (HC50) and 50% lethal concentration (LC50) for COS-1 cells.

[1] = Toxicity to COS-1 cells, CellTiter Blue viability; assay type: cell-based; conditions: African green monkey, resazurin (CellTiter Blue), read-out: Toxicity LC50, COS Cells
Experimental: COS-1 cells were cultured in DMEM containing 0.9 g/L glucose, 0.12% NaHCO3, 10% fetal calf serum and 1% penicillin–streptomycin at 37 °C and under an atmosphere of 5% CO2 [95]. Twenty hours before the assay, the cells were transferred to 96-well plates at a density of 1.5 × 10^4 cells/well. The peptides from the dilution series were added to each well and incubated for 24 h. The cell viability was measured by adding 20 μL/well resazurin reagent (CellTiter Blue™), followed by four hours incubation at room temperature in the dark and measurement of the absorbance at 560 nm and 600 nm in the BioRad microplate reader.
as §5

[2] = 48 h, Malstat, ± SEM, read-out: IC50, CQS P. falciparum 3D7

SMILES | IC50 (CQR P. falciparum Dd2) [nM] | Resistance Index IC50Dd2/IC503D7 (CQR P. falciparum Dd2) | Resistance Index IC50Dd2/IC50D10 (CQR P. falciparum Dd2) | IC50 (CQS P. falciparum 3D7; [2]) [nM] | IC50 (CQI P. falciparum D10) [nM] | increase in activity towards the CQI D10 strain (CQI P. falciparum D10; compared with 3D7) | Selectivity Index IC50D10/IC50 (COS cells) (CQI P. falciparum D10) | CC50 at 24 h [1] [nM] | IC50 (CQS P. falciparum 3D7; CQS 3D7, 48 h) [nM]
CC(C)C[C@@H]1NC(=O)[C@H](CCCN)NC(=O)[C@H](C(C)C)NC(=O)[C@H](Cc2c[nH]c3ccccc23)NC(=O)[C@H](CCC(N)=O)NC(=O)[C@H](CC(N)=O)NC(=O)[C@@H](Cc2c[nH]c3ccccc23)NC(=O)[C@H](Cc2c[nH]c3ccccc23)NC(=O)[C@@H]2CCCN2C(=O)[C@@H](Cc2ccccc2)NC1=O [TpcC, tryptocidine C] (cyclo(L[dF]PW[dW]NQWV[Orn])) | 398 ± 94 | 3 | 9 | 126 ± 28 | 42 ± 17 | about a three-fold increase in activity | 238 | 10000 | –
CC(C)C[C@@H]1NC(=O)[C@H](CCCN)NC(=O)[C@H](C(C)C)NC(=O)[C@H](Cc2ccc(O)cc2)NC(=O)[C@H](CCC(N)=O)NC(=O)[C@H](CC(N)=O)NC(=O)[C@@H](Cc2ccccc2)NC(=O)[C@H](Cc2ccccc2)NC(=O)[C@@H]2CCCN2C(=O)[C@@H](Cc2ccccc2)NC1=O [TrcA, tyrocidine A] (cyclo(V[Orn]L[dF]PF[dF]NQY)) | 1800 ± 319 | – | – | 41 ± 12 | – | – | 51 | 6000 | –
CC(C)C[C@@H]1NC(=O)[C@H](CCCN)NC(=O)[C@H](C(C)C)NC(=O)[C@H](Cc2ccccc2)NC(=O)[C@H](CCC(N)=O)NC(=O)[C@H](CC(N)=O)NC(=O)[C@@H](Cc2ccccc2)NC(=O)[C@H](Cc2ccccc2)NC(=O)[C@@H]2CCCN2C(=O)[C@@H](Cc2ccccc2)NC1=O [PhcA, phenycidine A] (cyclo(FV[Orn]L[dF]PF[dF]NQ)) | 511 ± 96 | 22 | 10 | – | 52 ± 17 | – | 154 | 8000 | 23 ± 7
